Values of other authors as cited in PMC4008333 (Cancer chemotherapy and pharmacology, 2012).
Starred links: 1 amine or outer side, 2 acyl side, 3 side chain; linkers in the order of their positions; H or OH if unused. Positions of bridges follow the written chain, without caps; N, C: chain ends. Non-standard residues stand in square brackets, D forms with d. Residues, ends and D or L forms follow the SMILES beside them. Chains are numbered I, II in the order given. Actinocin(9to1) = Cc1c2oc3c(C)ccc(C(=O)[*:1])c3nc-2c(C(=O)[*:2])c(N)c1=O; NMeV = CN[C@H](C(=O)O)C(C)C; Sar = CNCC(=O)O

Conditions: historical model; point estimate (% RSE)

Cc1c2oc3c(C)ccc(C(=O)N[C@@H]4C(=O)N[C@H](C(C)C)C(=O)N5CCC[C@H]5C(=O)N(C)CC(=O)N(C)[C@@H](C(C)C)C(=O)O[C@@H]4C)c3nc-2c(C(=O)N[C@@H]2C(=O)N[C@H](C(C)C)C(=O)N3CCC[C@H]3C(=O)N(C)CC(=O)N(C)[C@@H](C(C)C)C(=O)O[C@@H]2C)c(N)c1=O [AMD, actinomycin-D] (I: T[dV]P[Sar][NMeV] / II: T[dV]P[Sar][NMeV]; ester I:1-I:C, II:1-II:C; linker I:N-II:N via Actinocin(9to1))
Q2: 11.4 (58.8) L/h/70 kg
Q3: 25.2 (23.3) L/h/70 kg
V1: 3.56 (39.3) L/70 kg
V2: 16.1 (80.7) L/70 kg
V3: 367 (19.7) L/70 kg
